{
  "source": "paper PMC3750913",
  "about": "(BMC Microbiology, 2013)",
  "key": {"DENV-2 [1]": {"system": "DENV-2", "assay": "Viral penetration assay", "assay_type": "cell-based, dengue virus type 2", "conditions": "DENV-2; shift 4°C to 37°C; Figure 4"}, "MV [2]": {"system": "MV", "assay": "Analysis of drug effects post viral entry", "assay_type": "cell-based, measles virus", "conditions": "for protection, treatment post-infection: MV, Figure 6"}, "HCV": {"system": "HCV", "assay": "Viral cell-to-cell spread assay", "assay_type": "cell-based, hepatitis C virus", "conditions": "for effect on viral plaque size (cell-to-cell spread): HCV, Figure 7; for inhibition at 50 µM: Hepatitis C virus, Huh7.5, read-out: Window of antiviral effects: Cell-to-cell spread, inhibitory effect relative to DMSO control", "protocol": "(A) Schematic of the experiment (left) with the virus concentration (PFU/well) and step-wise incubation periods (i, ii, iii) indicated for each virus in the table on the right. Virus infections were established (i) in the different cell types by direct inoculation (HCMV, DENV-2, MV, and RSV) or electroporation of viral RNA (HCV; *), and the cell monolayers were washed with citrate buffer or PBS before being covered with an overlay medium that prevents secondary infection. Initial virus plaques were allowed to form in the subsequent infections (ii), and then the test compounds were added to the overlay medium for an additional time of incubation (iii) before analysis of viral plaque size by immune fluorescence microscopy. Five random virus-positive plaques at the endpoint of the experiment were evaluated for each treatment group of viruses, and the data was plotted as “fold change of plaque area” against the size of the initial viral plaques formed prior to test compound treatment. Analyses for (B) HCMV, (C) HCV, (D) DENV-2, (E) MV, and (F) RSV are indicated in each additional panel. The S29 cell line and the FIP inhibitor were included as controls for HCV and MV, respectively. Results shown are means ± SEM from three independent experiments and representative micrographs of the evaluated plaques are provided in Additional file 1 Figure S1, Additional file 2 Figure S2, Additional file 3 Figure S3, Additional file 4 Figure S4 and Additional file 5 Figure S5. See text for details.\nThe examination of HCV spread is based on previously described protocol with some modifications. Huh-7.5 cells were electroporated with HCV Jc1FLAG2(p7-nsGluc2A) RNA (10 μg) as described above to establish random productive infections in the cell population, and then mixed with naïve cells at a ratio of 1:1 before seeding in 12-well plates. […] Medium was changed 24 h post-electroporation with an overlay medium containing the test drugs or control and 0.5% methylcellulose, and the plates were further incubated for 5 days before analysis of HCV-positive foci through immunostaining.\nFor immunofluorescence analysis of viral plaque size due to spread, the overlay media were removed and the wells were fixed with ice-cold methanol before blocking with 3% BSA. Samples were then treated at 37°C for 1 h with the respective mouse monoclonal primary antibodies diluted in PBS containing 3% BSA: anti-HCMV gB antibody (1:1,000), anti-NS5A 9E10 antibody for HCV (1:25,000), anti-flavivirus group antibody (1:400) for DENV-2, and anti-RSV fusion protein antibody (1:1,000). After incubation, the wells were washed with PBS three times before applying Alexa Fluor 488 goat anti-mouse IgG (H + L) antibody (Invitrogen), diluted at 1:1,000 (HCMV and RSV) or 1:400 (DENV-2 and HCV) in PBS containing 3% BSA. Following incubation at 37°C for 1 h, the samples were washed with PBS three times prior to visualization by fluorescence microscopy. The fluorescence expression of MV-EGFP could be readily detected without addition of antibodies. Photomicrographs were taken at × 100 magnification (Leica Microsystems; Wetzlar, Germany) and viral plaque sizes were then analyzed with MetaMorph software (Molecular Devices; Sunnyvale, CA, USA). In the case of HCV, cellular nuclei were stained with Hoechst dye (Sigma) prior to visualization and the number of cells in the virus-positive foci was determined. For all virus tested, a total of five random virus-positive plaques were evaluated for each treatment group per independent experiment. Comparison was made between viral plaques stained prior to drug addition and those at the endpoint of the experiment, and the data were plotted as “fold change of plaque area”."}, "MV [3]": {"system": "MV", "assay": "Viral attachment assay, method 1 (host cell infection)", "assay_type": "cell-based, measles virus", "conditions": "for inhibition of entry (virus attachment): MV, method 1, 4°C, Figure 4, PUG more effective than CHLA"}, "VSV": {"system": "VSV", "assay_type": "cell-based, vesicular stomatitis virus", "conditions": "A549 cells"}, "HCMV [4]": {"system": "HCMV", "assay": "Viral attachment assay, method 1 (host cell infection)", "assay_type": "cell-based, human cytomegalovirus", "conditions": "Human betaherpesvirus 5, HEL, read-out: Window of antiviral effects: Attachment Method 1, inhibitory effect relative to DMSO control"}, "DENV-2 [5]": {"system": "DENV-2", "assay": "Viral attachment assay, method 1 (host cell infection)", "assay_type": "cell-based, dengue virus type 2", "conditions": "DENV-2, method 1, 4°C; Figure 4"}, "HCMV [6]": {"system": "HCMV", "assay": "Viral penetration assay", "assay_type": "cell-based, human cytomegalovirus", "conditions": "for protection of the host cell from infection during virus penetration: HCMV, shift 4°C to 37°C, Figure 4"}, "[7]": {"conditions": "Measles morbillivirus, read-out: Window of antiviral effects: Post-infection, inhibitory effect relative to DMSO control"}, "[8]": {"conditions": "Measles morbillivirus, read-out: Window of antiviral effects: Attachment Method 1, inhibitory effect relative to DMSO control"}, "[9]": {"conditions": "Human betaherpesvirus 5, HEL, read-out: Window of antiviral effects: Penetration, inhibitory effect relative to DMSO control"}},
  "data": [
    {"molecule": "O=C1O[C@H]2[C@@H]3OC(=O)c4cc(O)c(O)c(O)c4-c4c(O)c(O)c5oc(=O)c6c(c(O)c(O)c7oc(=O)c4c5c76)-c4c(cc(O)c(O)c4O)C(=O)OC[C@H]3OC(O)[C@@H]2OC(=O)c2cc(O)c(O)c(O)c2-c2c1cc(O)c(O)c2O", "note": "(mixture of isomers) [PUG, punicalagin]", "values": [
      {"measurement": "protection of the host cell from infection during virus penetration", "setting": "DENV-2 [1]", "result": "50 – 90%"},
      {"measurement": "protection, treatment post-infection", "setting": "MV [2]", "result": "80 – 100%"},
      {"measurement": "inhibition at 50 µM", "setting": "MV [2]; [7]", "result": "> 75", "unit": "%"},
      {"measurement": "effect on viral plaque size (cell-to-cell spread)", "setting": "HCV", "result": "near initial size"},
      {"measurement": "inhibition at 50 µM", "setting": "HCV", "result": "> 75", "unit": "%"},
      {"measurement": "inhibition of entry (virus attachment)", "setting": "MV [3]", "result": "50 – 80%"},
      {"measurement": "inhibition at 50 µM", "setting": "MV [3]; [8]", "result": "> 75", "unit": "%"},
      {"measurement": "SI (selectivity index, CC50/EC50)", "setting": "VSV", "result": 8.62},
      {"measurement": "inhibition at 40 µM", "setting": "HCMV [4]", "result": "50 to 75", "unit": "%"},
      {"measurement": "inhibition of virus attachment", "setting": "DENV-2 [5]", "result": "90 – 100%"},
      {"measurement": "protection of the host cell from infection during virus penetration", "setting": "HCMV [6]", "result": "50 – 90%"},
      {"measurement": "inhibition at 40 µM", "setting": "HCMV [6]; [9]", "result": "50 to 75", "unit": "%"}
    ]},
    {"molecule": "O=C(O)C[C@@H]1C(=O)O[C@H]2[C@@H]3OC(=O)c4cc(O)c(O)c(O)c4-c4c(cc(O)c(O)c4O)C(=O)OC[C@H]2O[C@@H](OC(=O)c2cc(O)c(O)c(O)c2)[C@@H]3OC(=O)c2cc(O)c(O)c3c2[C@H]1[C@H](O)C(=O)O3", "note": "[CHLA, chebulagic acid]", "values": [
      {"measurement": "protection, treatment post-infection", "setting": "MV [2]", "result": "80 – 100%"},
      {"measurement": "inhibition at 90 µM", "setting": "MV [2]; [7]", "result": "> 75", "unit": "%"},
      {"measurement": "effect on viral plaque size (cell-to-cell spread)", "setting": "HCV", "result": "near initial size"},
      {"measurement": "inhibition at 50 µM", "setting": "HCV", "result": "> 75", "unit": "%"},
      {"measurement": "inhibition of entry (virus attachment)", "setting": "MV [3]", "result": "50 – 80%"},
      {"measurement": "inhibition at 90 µM", "setting": "MV [3]; [8]", "result": "50 to 75", "unit": "%"},
      {"measurement": "SI (selectivity index, CC50/EC50)", "setting": "VSV", "result": 5.17},
      {"measurement": "inhibition of virus attachment", "setting": "DENV-2 [5]", "result": "90 – 100%"},
      {"measurement": "protection of the host cell from infection during virus penetration", "setting": "HCMV [6]", "result": "50 – 90%"},
      {"measurement": "inhibition at 60 µM", "setting": "HCMV [6]; [9]", "result": "50 to 75", "unit": "%"}
    ]}
  ]
}
